# Laboratory results reported in US20230416262A1, “TRPML MODULATORS” (Casma Therapeutics, Inc., priority 2020, published 2023).
# Tested on: TFEB
# Assay: TFEB nuclear translocation assay
# Type: cell-based
# Conditions: Homo sapiens; HeLa wt or HeLa TRPML1 KO cells, treated for 2 hrs; ratio of nuclear to ring-region TFEB intensity
# Description: For the TFEB nuclear translocation assay, HeLa wt or HeLa TRPML1 KO cells were plated at 2700 cells/well into black-walled, 384-well Cell carrier Ultra tissue culture treated plates in complete media and incubated overnight. The next day, cells are treated for 2 hrs with compounds and incubated at 37° C. Cells were then fixed for 30 minutes at room temperature in 4% final PFA and washed five times with 90 μL PBS. PBS is aspirated from the wells and the cells are blocked with 7.5 μL blocking buffer (1.1 PBS/Odyssey block buffer containing 0.1% triton x-100 and 1% goat serum). After 30-60 minutes of block, 7.5 μL of primary anti-TFEB (rabbit) antibody is added for a final dilution of 1:200 antibody in 15 μL blocking buffer. Plates are incubated overnight at 4° C. The following day, plates are washed again into PBS, 90 μL with 5 washes, all PBS is aspirated from the wells and the cells are incubated for 1 hr in 1:1000 goat-anti rabbit Alexa 488 secondary antibody, also containing 10 μg/mL Hoechst 33342. After the 1 hr RT incubation, plates are washed a final time into PBS, sealed with foil and imaged with an automated epifluorescence microscopy (PerkinElmer Operetta CLS). Four different fields were imaged per well using ×20 magnification for DAPI and FITC filter sets. Images were quantified using PerkinElmer Harmony software, briefly: apply flatfield correction (basic/advanced) for input images. Use the Find Nuclei building block with channel set at Hoechst to find the nuclei. Use the Find cytoplasm building block with channel set to Alexa 488 to find the cytoplasm. Use select cell region with Channel set at Alexa 488 and region of interest as Nuclei and define outer border at 0 μm and inner at 45 μm to cover complete nuclei. Use select cell region with Channel set at Alexa 488 and region of interest as ring region and define outer border at −5 μm and inner at 0 μm to define a ring around the nucleus. Use the find calculate intensity parameter to calculate intensity of the nuclear region and the ring region. Define results as Number of nuclei and ratio of A/B where A is Intensity of Nuclei and B is intensity of the ring region.
row,EC50 [µM],Compound
1,2.01 to 8,"Cc1ccc(F)c(CS(=O)(=O)N2CC3(CCCC3)c3ccccc32)c1 [Compound I-47, 1′-[(2-fluoro-5-methylphenyl)methanesulfonyl]-1′,2′-dihydrospiro[cyclopentane-1,3′-indole]]"
2,≤ 2,"CN(C)S(=O)(=O)c1ccc(S(=O)(=O)N2CC3(CCCCC3)n3nc(C4CC4)cc32)cc1 [Compound I-257, 4-({6′-cyclopropyl-1′,2′-dihydrospiro[cyclohexane-1,3′-pyrazolo[1,5-a]imidazol]-1′-yl}sulfony1)-N,N-dimethylbenzene-1-sulfonamide]"
3,≥ 10,"COC(C)(C)c1ccc(S(=O)(=O)N2CC3(CCCC3)c3ccccc32)cc1 [Compound I-56, 1′-[4-(2-methoxypropan-2-yl)benzenesulfonyl]-1′,2′-dihydrospiro[cyclopentane-1,3′-indole]]"
4,≥ 10,"O=S(=O)(c1ccc(C2OCCO2)cc1F)N1CC2(CCCC2)c2ccccc21 [Compound I-22, 1′-[4-(1,3-dioxolan-2-yl)-2-fluorobenzenesulfonyl]-1′,2′-dihydrospiro[cyclopentane-1,3′-indole]]"
5,≥ 10,"Cc1cc2n(n1)C1(CCCCC1)CN2S(=O)(=O)c1ccc2c(c1)C(C)(C)CO2 [Compound I-147, 1′-[(3,3-dimethyl-2,3-dihydro-1-benzofuran-5-yl)sulfonyl]-6′-methyl-1′,2′-dihydrospiro[cyclohexane-1,3′-pyrazolo[1,5-a]imidazole]]"
6,≥ 10,"Cc1cc(S(=O)(=O)N2CC3(CCCC3)c3ccccc32)ccc1F [Compound I-11, 1′-(4-fluoro-3-methylbenzenesulfonyl)-1′,2′-dihydrospiro[cyclopentane-1,3′-indole]]"
7,2.01 to 8,O=S(=O)(Cc1ccccc1)N1CC2(CCN(CC(F)(F)F)C2)c2ccccc21 (stereo not shown) [Compound I-120]
8,2.01 to 8,"O=C(OCc1ccccc1)N1CCC2(C1)CN(S(=O)(=O)Cc1ccccc1)c1ccccc12 (stereo not shown) [Compound I-115, benzyl 1-phenylmethanesulfonyl-1,2-dihydrospiro[indole-3,3′-pyrrolidine]-1′-carboxylate]"
9,≥ 10,"O=S(=O)(c1ccn(C2CC2(F)F)n1)N1CC2(CCCC2)c2ccccc21 (stereo not shown) [Compound I-43, 1′-{[1-(2,2-difluorocyclopropyl)-1H-pyrazol-3-yl]sulfonyl}-1′,2′-dihydrospiro[cyclopentane-1,3′-indole]]"
10,≤ 2,"CN(C)S(=O)(=O)c1ccc(S(=O)(=O)N2CC3(CCN(CC(F)(F)F)C3)c3ccccc32)cc1 (stereo not shown) [Compound I-93, N,N-dimethyl-4-{[1′-(2,2,2-trifluoroethyl)-1,2-dihydrospiro[indole-3,3′-pyrrolidin]-1-yl]sulfonyl}benzene-1-sulfonamide]"
11,2.01 to 8,"Cc1ccc(CS(=O)(=O)N2CC3(CCCC3)c3ccccc32)cc1C [Compound I-14, 1′-[(3,4-dimethylphenyl)methanesulfonyl]-1′,2′-dihydrospiro[cyclopentane-1,3′-indole]]"
12,2.01 to 8,"CN(C)S(=O)(=O)c1ccc(S(=O)(=O)N2CC3(CCOC3)c3ccccc32)cc1 (stereo not shown) [Compound I-76, 4-({1,2-dihydrospiro[indole-3,3′-oxolan]-1-yl}sulfonyl)-N,N-dimethylbenzene-1-sulfonamide]"
13,≥ 10,"Cc1cc2n(n1)C1(CCCCC1)CN2S(=O)(=O)c1ccc(S(=N)(=O)N(C)C)cc1 (stereo not shown) [Compound I-146, N,N-dimethyl-4-({6′-methyl-1′,2′-dihydrospiro[cyclohexane-1,3′-pyrazolo[1,5-a]imidazol]-1′-yl}sulfonyl)benzene-1-sulfonoimidamide]"
14,2.01 to 8,"O=S(=O)(c1cccc(C2CC2(F)F)c1)N1CC2(CCCC2)c2ccccc21 (stereo not shown) [Compound I-49, 1′-[3-(2,2-difluorocyclopropyl)benzenesulfonyl]-1′,2′-dihydrospiro[cyclopentane-1,3′-indole]]"
15,≥ 10,"CN(C)S(=O)(=O)c1ccc(S(=O)(=O)N2CC3(CCCC3)c3cnccc32)cc1 [Compound I-70, 4-({1′,2′-dihydrospiro[cyclopentane-1,3′-pyrrolo[3,2-c]pyridin]-1′-yl}sulfonyl)-N,N-dimethylbenzene-1-sulfonamide]"
16,≥ 10,"CC(C)(O)c1cccc(S(=O)(=O)N2CC3(CCCC3)c3ccccc32)c1 [Compound I-61, 2-[3-({1′,2′-dihydrospiro[cyclopentane-1,3′-indol]-1′-yl}sulfonyl)phenyl]propan-2-ol]"
17,≥ 10,"CC(C)(CO)c1ccc(S(=O)(=O)N2CC3(CCCC3)c3ccccc32)cc1 [Compound I-54, 2-[4-({1′,2′-dihydrospiro[cyclopentane-1,3′-indol]-1′-yl}sulfonyl)phenyl]-2-methylpropan-1-ol]"

row,EC50 [µM],Compound
1,2.01 to 8,"O=S(=O)(C1=Cc2ccccc2OCC1)N1CC2(CCCC2)c2ccccc21 [Compound I-40, 1′-(2,3-dihydro-1-benzoxepine-4-sulfonyl)-1′,2′-dihydrospiro[cyclopentane-1,3′-indole]]"
2,8.01 to 9.99,"CC1(C)Cc2cc(S(=O)(=O)N3CC4(CCCC4)c4ccccc43)ccc2C1=O [Compound I-51, 5-({1′,2′-dihydrospiro[cyclopentane-1,3′-indol]-1′-yl}sulfonyl)-2,2-dimethyl-2,3-dihydro-1H-inden-1-one]"
3,2.01 to 8,"Cc1ccc(CS(=O)(=O)N2CC3(CCCC3)c3ccccc32)c(F)c1 [Compound I-44, 1′-[(2-fluoro-4-methylphenyl)methanesulfonyl]-1′,2′-dihydrospiro[cyclopentane-1,3′-indole]]"
4,≥ 10,CN1CCC2(C1)CN(S(=O)(=O)c1ccc(C(F)F)cc1)c1ccccc12 (stereo not shown) [Compound I-89]
5,≥ 10,"N=S(=O)(c1ccc(S(=O)(=O)N2CC3(CCCCC3)c3ccccc32)cc1)C1CC1 (stereo not shown) [Compound I-151, 1′-((4-(cyclopropanesulfonimidoyl)phenyl)sulfonyl)spiro[cyclohexane-1,3′-indoline]]"
6,2.01 to 8,"CS(=O)(=O)c1ccc(S(=O)(=O)N2CC3(CCCC3)c3ccccc32)cc1F [Compound I-10, 1′-(3-fluoro-4-methanesulfonylbenzenesulfonyl)-1′,2′-dihydrospiro[cyclopentane-1,3′-indole]]"
7,≤ 2,"CN(C)S(=O)(=O)c1ccc(S(=O)(=O)N2CC3(CCCO3)c3ccccc32)cc1 (stereo not shown) [Compound I-77, 4-({1,2-dihydrospiro[indole-3,2′-oxolan]-1-yl}sulfonyl)-N,N-dimethylbenzene-1-sulfonamide]"
8,≥ 10,O=S(=O)(c1cnn(C2CCOCC2)c1)N1CC2(CCCC2)c2ccccc21 [Compound I-19]
9,≥ 10,"COC(CS(=O)(=O)N1CC2(CCCC2)c2ccccc21)c1ccc(F)cc1 (stereo not shown) [Compound I-7, 1′-[2-(4-fluorophenyl)-2-methoxyethanesulfonyl]-1′,2′-dihydrospiro[cyclopentane-1,3′-indole]]"
10,≥ 10,"CN1Cc2cc(S(=O)(=O)N3CC4(CCCC4)c4ccccc43)ccc2OC1=O [Compound I-6, 6-({1′,2′-dihydrospiro[cyclopentane-1,3′-indol]-1′-yl}sulfonyl)-3-methyl-3,4-dihydro-2H-1,3-benzoxazin-2-one]"
11,≥ 10,"O=S(=O)(c1cnc(-c2ccccc2)o1)N1CC2(CCCC2)c2ccccc21 [Compound I-39, 1′-[(2-phenyl-1,3-oxazol-5-yl)sulfonyl]-1′,2′-dihydrospiro[cyclopentane-1,3′-indole]]"
12,2.01 to 8,"CC1(C)OCc2cc(S(=O)(=O)N3CC4(CCCC4)c4ccccc43)ccc21 [Compound I-66, 1′-((1,1-dimethyl-1,3-dihydroisobenzofuran-5-yl)sulfonyl)spiro[cyclopentane-1,3′-indoline]]"
13,2.01 to 8,"CN(C)S(=O)(=O)c1ccc(S(=O)(=O)N2CC3(CCCC3)c3ncccc32)cc1 [Compound I-78, N,N-dimethyl-4-(spiro[cyclopentane-1,3′-pyrrolo[3,2-b]pyridin]-1′(2′H)-ylsulfonyl)benzenesulfonamide]"
14,≥ 10,"CC(c1ccc(S(=O)(=O)N(C)C)cc1)N1CC2(CCCCC2)c2ccccc21 (stereo not shown) [Compound I-150, 4-(1-{1′,2′-dihydrospiro[cyclohexane-1,3′-indol]-1′-yl}ethyl)-N,N-dimethylbenzene-1-sulfonamide]"
15,≥ 10,"CN(C)S(=O)(=O)c1ccc(S(=O)(=O)N2CC3(CCCC3)c3cccnc32)cc1 [Compound I-71, 4-({1′,2′-dihydrospiro[cyclopentane-1,3′-pyrrolo[2,3-b]pyridin]-1′-yl}sulfonyl)-N,N-dimethylbenzene-1-sulfonamide]"
16,2.01 to 8,"O=S(=O)(C1=Cc2ccccc2CC1)N1CC2(CCCC2)c2ccccc21 [Compound I-42, 1′-(3,4-dihydronaphthalene-2-sulfonyl)-1′,2′-dihydrospiro[cyclopentane-1,3′-indole]]"

row,Compound,EC50 [µM]
1,"O=S(=O)(Cc1ccccc1)N1CC2(CCN(CC(F)(F)F)CC2)c2ccccc21 [Compound I-85, 1-phenylmethanesulfonyl-1′-(2,2,2-trifluoroethyl)-1,2-dihydrospiro[indole-3,4′-piperidine]]",≥ 10
